From patent publication US4024139A, “2,3,4,4A-Tetrahydro-10H-1,2-oxazino[3,2-b](1,3)benzoxazin-10-ones” (Carter-Wallace, Inc., priority 1972, dated 1977)

Test system: hind paw edema induced by carrageenin in the rat
Experiment: hind paw edema induced by carrageenin in the rat (anti-inflammatory activity, oral)
Assay type: in vivo, rat (male, Sprague-Dawley)
Details: oral intubation 1 h before carrageenin, foot volume 3 h later, ED50 = dose in which edema formation is inhibited by 25 percent or more in 50 percent of the rats vs. mean of controls
Description: The procedure described below (Winters et al, Proc. Soc., Exp. Biol. Med., 111, 544, 1962) was used to establish the effectiveness of these compounds in the hind paw edema induced by carrageenin in the rat.
Male rats of the Sprague-Dawley strain (Charles River Laboratories) weighing 100 ± 20 grams were used for this study. Six animals were used for each drug dose. The drug was suspended in 1 percent aqueous solution of gum acacia, and each rat received 10 ml/kg of the appropriate concentration of drug suspension by oral intubation; controls were given a similar volume of the vehicle. One hour later, edema in the right hind paw was induced by the subplantar injection of 0.05 ml. of 1 percent calcium carrageenin dissolved in 0.15N sodium chloride. The volume of the foot was determined immediately and again 3 hours later. The difference was recorded as edema volume. Foot volume was measured by immersion of the foot in water at the level of the lateral malleolus, and determining the volume of water displaced by the foot. The ED50 may be defined as the dose in which edema formation is inhibited by 25 percent or more in 50 percent of the rats when compared to the mean value of the controls.

SMILES	ED50
O=C1c2cc(Cl)ccc2OC2CCCON12 (stereo not drawn) [Example 1, 8-chloro-2,3,4,4a-tetrahydro-10H-1,2-oxazino (3,2-b)(1,3)benzoxazin-10-one]	100 ± 27 mg/kg
O=C1c2ccccc2OC2CCCON12 (stereo not drawn) [Example 2, 2,3,4,4a-tetrahydro-10H-1,2-oxazino(3,2-b) (1,3)benzoxazin-10-one]	65 ± 22 mg/kg
Cc1ccc2c(c1)C(=O)N1OCCCC1O2 (stereo not drawn) [Example 3, 8-methyl-2,3,4,4a-tetrahydro-10H-1,2oxazino (3,2-b)(1,3)benzoxazine-10-one]	> 300 mg/kg
CC1CCC2Oc3ccc(Cl)cc3C(=O)N2O1 (stereo not drawn) [Example 4, 8-chloro-2-methyl-2,3,4,4a-tetrahydro-10H-1,2-oxazino(3,2-b)(1,3)benzoxazin-10-one]	270 ± 185 mg/kg
CC1CON2C(=O)c3cc(Cl)ccc3OC2C1 (stereo not drawn) [Example 5, 8-chloro-3-methyl-2,3,4,4a-tetrahydro-10H-1,2-oxazino(3,2-b)(1,3)benzoxazin-10-one]	160 ± 73 mg/kg
CC1CCON2C(=O)c3cc(Cl)ccc3OC12 (stereo not drawn) [Example 6, 8-chloro-4-methyl-2,3,4,4a-tetrahydro-10H-1,2-oxazino(3,2-b)(1,3)benzoxazin-10-one]	195 ± 96 mg/kg
